Test results taken from patent US20120277211A1, “METHODS AND COMPOSITIONS FOR THE TREATMENT OF PSYCHOTIC DISORDERS THROUGH THE IDENTIFICATION OF THE SULT4A1-1 HAPLOTYPE” (priority 2009, published 2012).
Read-outs that look alike come from different tables or passages of the source. Marks after values point to notes of the source that are not given here.

Assays:
schizophrenia patients [1] = assay: CATIE: months of successful treatment measured by the CGI scale (TMSUCC1); assay type: in vivo, human
Description: The CATIE clinical data set included Clinical Global Impression (CGI) Scale, an observer-provided assessment of the psychiatric health of the patient (Stroup et al., 2003; Guy 1976). Patients are rated with the CGI Scale from 1 to 7, with higher scores indicating greater severity of illness. The CATIE study provided a response variable that measured the time (in months) of successful treatment as measured by the CGI scale (“TMSUCC1” in the CATIE data).

[2] = test system: unsegmented patient populations; details: cited from earlier work
schizophrenia patients [3] = details: Phase II; for Responders: decrease PANSS ≧20%, LOCF
[4] = test system: Caucasian schizophrenia patients; assay: CATIE Phase I: change in total PANSS (LOCF) by SULT4A1-1 haplotype status, Caucasians; assay type: in vivo, human; details: for Percent change from baseline PANSS scores, mean (standard deviation): Phase I; for Percent change from baseline PANSS scores, mean (standard deviation) / Number of individuals with change in total PANSS ≦−20% (responders) / Number of individuals with change in total PANSS ≧−20% (non-responders) / Responders: LOCF; for Number of individuals with change in total PANSS ≦−20% (responders) / Number of individuals with change in total PANSS ≧−20% (non-responders) / Responders: CATIE Caucasians; for Responders: change in PANSS ≦−20%
Description: There are several different metrics for quantifying response in clinical trials of antipsychotic medications. The most commonly used psychometric instrument is the Positive and Negative Syndrome Scale (PANSS), a 30-item semi-quantitative instrument scored by clinical professionals (Kay et al., 1987). The greater the decrease in PANSS score, the better the clinical response. The most direct measure of clinical response is absolute change in PANSS score. In addition to absolute change, the improvement is often reported as a percentage change from baseline PANSS score.
A decrease of at least 20% in total PANSS is one commonly used threshold for response (Leucht et al., 2009).
The design of the CATIE study has been described in detail by others (Lieberman et al., 2005; Stroup et al., 2003). […] A total of 738 subjects consented to provide DNA for genetic study. […] Retrospective genetic analyses, judged to be exempt from human studies requirements by an IRB, were conducted in the current study.
All tested patients were studied using well established clinical endpoints comparing baseline, intermediate, and last observation carried forward (LOCF) for the PANSS scores using CATIE data. LOCF analysis is a commonly used clinical endpoint for clinical trials for neuropsychiatric drugs, with changes in PANSS scores of between negative 20% and negative 30% used as typical endpoints to indicate clinically significant response (Leucht et al., 2009). To remove time on drug as a variable for the CATIE trial, analysis was limited to only those patients who were randomized to a different drug following the initial washout period (drug switchers).
The CATIE clinical data set included baseline PANSS scores based on clinical assessments prior to initiation of the assigned therapy, but following the washout period for any patients previously on antipsychotic medication. Follow up PANSS data for the CATIE trial were collected at each visit as described in detail by others (Stroup et al., 2003).
Since follow-up on subjects was not done at uniform time intervals, analysis was done using the last observation for each patient in treatment Phase I of the trial as the measure of response (last observation carried forward, LOCF). Main effect and interaction terms between the SULT4A1-1 haplotype and drug therapy were included in the linear model. A pre-determined set of contrasts for differences in percent change PANSS by haplotype within each drug therapy (three comparisons) and by drug therapy within each haplotype (six comparisons) were evaluated, with adjustment for multiple-comparisons using the step-up false-discovery rate (FDR) controlling procedure (Benjamini and Hochberg, 1995). A sub-analysis omitting those patients who were randomized to the same antipsychotic drug therapy was also conducted.

[5] = test system: Caucasian schizophrenia patients; assay: CATIE: time to discontinuation for all causes by SULT4A1-1 status; assay type: in vivo, human
Description: The primary endpoint for the CATIE study was time to discontinuation for all causes (Lieberman et al., 2005). Thus the inventors evaluated the effect of SULT41-1 status on this important parameter.

[6] = test system: African American schizophrenia patients; assay: CATIE: change in total PANSS (LOCF) by SULT4A1-1 haplotype status, African Americans; assay type: in vivo, human; details: for Number of individuals with change in total PANSS ≦−20% (responders) / Number of individuals with change in total PANSS ≧−20% (non-responders): LOCF
Description: The design of the CATIE study has been described in detail by others (Lieberman et al., 2005; Stroup et al., 2003). […] A total of 738 subjects consented to provide DNA for genetic study. […] Retrospective genetic analyses, judged to be exempt from human studies requirements by an IRB, were conducted in the current study. All tested patients were studied using well established clinical endpoints comparing baseline, intermediate, and last observation carried forward (LOCF) for the PANSS scores using CATIE data. […] To remove time on drug as a variable for the CATIE trial, analysis was limited to only those patients who were randomized to a different drug following the initial washout period (drug switchers).

[7] = test system: Caucasian schizophrenia patients; assay: CATIE: hospitalization due to exacerbation of psychosis by SULT4A1-1 status; assay type: in vivo, human
Description: To assess if SULT4A1-1 status impacts the risk of hospitalization in Caucasians, the inventors assigned SULT4A1-1 status to each CATIE subject and evaluated hospitalization events due to exacerbation of psychosis. For this analysis, the inventors assigned a dichotomous value (positive or negative) for hospitalization status to subjects in each phase of the trial based on only the first hospitalization event for a given patient in that phase. Patients participating in Phases 1, 2, and/or 3 were included in the totals for the appropriate drug.
A Kaplan-Meier survival analysis was performed to determine whether there was a difference between the survival (hospitalization) rates for the SULT4A1-1 negative and SULT4A1-1 positive patient populations treated with each of the atypical antipsychotics. Survival plots model the fraction of the population that survived (i.e., no hospitalization event) as a function of time.

[8] = comparator = labelled drug in SULT4A1-1+ patients
[9] = complete sample, SULT4A1-1+, labelled drug vs Risperidone
[10] = complete sample, within drug, SULT4A1-1+ vs SULT4A1-1−
[11] = randomized to a different medication, SULT4A1-1+, labelled drug vs Risperidone
[12] = randomized to a different medication, within drug, SULT4A1-1+ vs SULT4A1-1−

OCCOCCN1CCN(C2=Nc3ccccc3Sc3ccccc32)CC1 [Quetiapine]
Length of successful treatment (CGI Months), Mean (schizophrenia patients [1]; SULT4A1-1 negative): 4.22 Months
Length of successful treatment (CGI Months), Mean (schizophrenia patients [1]; SULT4A1-1 positive): 5.96^c Months
Length of successful treatment (CGI Months), Mean (schizophrenia patients [1]; Unsegmented): 4.65 Months
Effect Size vs. FGA ([2]; first generation antipsychotics, Davis et al. (2003)): 0.01
Effect Size vs. Placebo ([2]; meta-analysis, Leucht et al. (2009), negative = greater reduction in PANSS): −0.42
Mean difference in total PANSS score between olanzapine and labelled drug, Meta-analysis ([2]; unsegmented populations, Leucht et al. (2009)): −3.7
% Responders (schizophrenia patients [3]; SULT4A1-1 Negative): 9.0%
Nonresponders (schizophrenia patients [3]; SULT4A1-1 Negative): 10
Responders (schizophrenia patients [3]; SULT4A1-1 Negative): 1
% Responders (schizophrenia patients [3]; SULT4A1-1 Positive): 0%
Nonresponders (schizophrenia patients [3]; SULT4A1-1 Positive): 1
Responders (schizophrenia patients [3]; SULT4A1-1 Positive): 0
Mean difference in total PANSS score between olanzapine and labelled drug, CATIE SULT4A1-1+ ([4]; SULT4A1-1+): −12.9
Percent change from baseline PANSS scores, mean (standard deviation) ([4]; SULT4A1-1+, complete sample): −4.52 (17.6) %
Percent change from baseline PANSS scores, mean (standard deviation) ([4]; SULT4A1-1+, patients randomized to a different medication): −6.44 (19.0) %
DELTA PANSS % (mean change in PANSS score from baseline to LOCF) ([4]; SULT4A1-1 negative): 0*** %
Number of individuals with change in total PANSS ≦−20% (responders) ([4]; SULT4A1-1 negative): 13
Number of individuals with change in total PANSS ≧−20% (non-responders) ([4]; SULT4A1-1 negative): 50
Responders ([4]; SULT4A1-1 negative): 20.6%**
DELTA PANSS % (mean change in PANSS score from baseline to LOCF) ([4]; SULT4A1-1 positive): −9** %
Number of individuals with change in total PANSS ≧−20% (non-responders) ([4]; SULT4A1-1 positive): 11
Number of individuals with change in total PANSS ≦−20% (responders) ([4]; SULT4A1-1 positive, randomized to a different drug): 7
Responders ([4]; SULT4A1-1 positive): 38.8%
Mean difference in total PANSS score between olanzapine and labelled drug, CATIE SULT4A1-1− ([4]; SULT4A1-1−): −3.8
Percent change from baseline PANSS scores, mean (standard deviation) ([4]; SULT4A1-1−, complete sample): 0.84 (26.5) %
Percent change from baseline PANSS scores, mean (standard deviation) ([4]; SULT4A1-1−, patients randomized to a different medication): 0.4 (26.7) %
Mean difference in total PANSS score between olanzapine and labelled drug, CATIE unsegmented ([4]; Unsegmented): −6.2
Effect size: olanzapine SULT4A1-1+ vs comparator group [4, 8]: 0.75
Mean difference (95% CI) in delta PANSS: olanzapine SULT4A1-1+ minus comparator group [4, 8]: −14.9 (−28.3 to −1.5)
Difference in percent change in PANSS score (first group minus second) [4, 9]: −1.0%
Difference in percent change in PANSS score, corrected for age, age of onset and sex [4, 9]: −0.54%
Difference in percent change in PANSS score (first group minus second) [4, 10]: −5.4%
Difference in percent change in PANSS score, corrected for age, age of onset and sex [4, 10]: −2.65%
Effect Size attributable to SULT4A1-1 status in CATIE ([4]; olanzapine-treated SULT4A1-1 positive versus labelled drug-treated SULT4A1-1 positive): −0.75^b
Difference in percent change in PANSS score (first group minus second) [4, 11]: −4.6%
Difference in percent change in PANSS score, corrected for age, age of onset and sex [4, 11]: −3.33%
Difference in percent change in PANSS score (first group minus second) [4, 12]: −6.8%
Difference in percent change in PANSS score, corrected for age, age of onset and sex [4, 12]: −2.91%
Time to discontinuation, mean ([5]; SULT4A1-1 negative): 8.6*** Months
Time to discontinuation, mean ([5]; SULT4A1-1 positive): 10.3 Months
Responders ([6]; SULT4A1-1 negative): 26.5%
Number of individuals with change in total PANSS ≦−20% (responders) ([6]; SULT4A1-1 negative): 9
Number of individuals with change in total PANSS ≧−20% (non-responders) ([6]; SULT4A1-1 negative): 25
Responders ([6]; SULT4A1-1 positive): 33.3%
Number of individuals with change in total PANSS ≦−20% (responders) ([6]; SULT4A1-1 positive): 2
Number of individuals with change in total PANSS ≧−20% (non-responders) ([6]; SULT4A1-1 positive): 4
HOSP, number of patients hospitalized ([7]; SULT4A1-1 negative): 24
HOSP, rate of hospitalization ([7]; SULT4A1-1 negative): 19.5%
HOSP, number of patients hospitalized ([7]; SULT4A1-1 positive): 1
HOSP, rate of hospitalization ([7]; SULT4A1-1 positive): 2.9%
HOSP, rate of hospitalization ([7]; Unsegmented): 15.9%
HOSP, number of patients hospitalized ([7]; Unsegmented, Phases 1, 2 and/or 3, first event): 25
Kaplan-Meier: difference between survival (no hospitalization) rates of SULT4A1-1 negative and positive patients ([7]; per drug): significant difference
